The results in this text go back to ChEMBL document CHEMBL1201862, “PubChem BioAssay data set” (2004).

Holding throughout (assay): growth of human tumour cells (NCI), 48 h
The test system of assay [1] is NCI/ADR-RES.
Assay [2] has as its system MOLT-4.
Assay [3] concerns NCI-H23.
Assay [4] relates to A498.
Assay [5] concerns MDA-N.
Assay [6] has as its system K562.
The subject of assay [7] is TK-10.
The subject of assay [8] is SR.
Assay [9] concerns CCRF-CEM.
Assay [10] has as its system SN12C.
Assay [11] relates to SK-OV-3.
Assay [12] deals with NCI-H460.
Assay [13] deals with HOP-92.
In assay [14] the test system is HCT-15.
Assay [15] deals with KM12.
In assay [16] the test system is 786-0.
Assay [17] concerns SF-539.
Assay [18] deals with SF-295.
Assay [19] relates to RXF 393.
Assay [20] deals with OVCAR-8.

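Tested at 5 concentrations; 48 h exposure; 96-well plates; endpoints linearly interpolated, else capped at highest concentration. GI50 is the concentration that inhibits growth by half.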 Active and inactive are the calls of the source. Cut-off read from the data, not from the text of the source: active = GI50 up to about 1.1 µM and inactive = higher.

Take `O=C1NC(=S)NC(=O)C1=C(O)Nc1ccccc1`: the GI50 was 30.5 µM (inactive) in assay [1]; 10.3 µM (inactive) in assay [2]; 26.3 µM (inactive) in assay [3]; 28.6 µM (inactive) in [4]; 30 µM (inactive) in assay [5]; 27.7 µM (inactive) in assay [6]. In addition, the GI50 in assay [7] was 53.6 µM (inactive); in assay [8], 12.8 µM (inactive); in assay [9] it was 16.4 µM (inactive); in assay [10], 25.8 µM (inactive); in [11], 38.9 µM (inactive); in assay [12], 22.7 µM (inactive). In addition, the GI50 in assay [13] is 8.34 µM (inactive); in [14], 14.2 µM; in assay [15], 36.6 µM (inactive); in [16] it was 28.1 µM (inactive); in [17], 23.8 µM (inactive); in [18], 27.7 µM (inactive). The GI50 in [19] was 33.2 µM (inactive); in assay [20], 27.8 µM (inactive).
As for `COc1c2c3c4c(c(OC)c(=O)c5c(O)cc(OC)c(c6c(OC)cc(O)c(c1=O)c63)c54)C(C(C)O)C2C(C)=O` (stereo not given), the GI50 in assay [1] was 0.296 µM (active); in [2] it was 0.279 µM (active); in [3] it was 0.331 µM (active); in [4], 0.628 µM (active); in assay [5], 0.282 µM (active); in assay [6], 0.234 µM (active). The GI50 is 0.581 µM (active) in assay [7]; 0.178 µM (active) in assay [8]; 0.269 µM (active) in assay [9]; 0.485 µM (active) in assay [10]; 0.826 µM (active) in assay [11]; 0.226 µM (active) in assay [12]. The GI50 is 0.225 µM (active) in [13]; 0.652 µM in assay [14]; 0.431 µM (active) in assay [15]; 0.61 µM (active) in assay [16]; 0.296 µM (active) in assay [17]; 0.256 µM (active) in assay [18]. The GI50 is 0.06 µM (active) in assay [19] and 0.321 µM (active) in [20].
On to `COc1cc2c3c(c1OC)C1(C=CC(=O)C=C1)CC3NCC2` (stereo not given), for which the GI50 in assay [1], in [2], in assay [3], in [4], in assay [5] and in assay [6] was > 100 µM (inactive) throughout. The GI50 in assay [7] is > 100 µM (inactive); in assay [8] it was > 100 µM (inactive); in assay [9], 48.8 µM (inactive); in [10] it was > 100 µM (inactive); in assay [11], > 100 µM (inactive); in assay [12], > 100 µM (inactive). The GI50 is > 100 µM (inactive) in assay [13]; greater than 100 µM in assay [14]; 80 µM (inactive) in assay [15]; 44 µM (inactive) in [16]; > 100 µM (inactive) in assay [17]; > 100 µM (inactive) in [18]. The GI50 is 89.7 µM (inactive) in [19] and > 100 µM (inactive) in assay [20].
Consider `COC(=O)CCCc1nc2ccccc2nc1/N=N/c1ccccc1`, for which the GI50 in [1] was 18.7 µM (inactive); in assay [2], 9.93 µM (inactive); in [3], 39 µM (inactive); in [4], > 100 µM (inactive); in assay [5], 48.2 µM (inactive); in assay [6], 19.3 µM (inactive). The GI50 in assay [7] is > 100 µM (inactive); in assay [8] it was 20.8 µM (inactive); in assay [9], 30.1 µM (inactive); in assay [10], 51.5 µM (inactive); in assay [11], > 100 µM (inactive); in assay [12], 49.8 µM (inactive). Further, the GI50 is > 100 µM (inactive) in assay [13]; 23.9 µM in assay [14]; 37.1 µM (inactive) in assay [15]; 38.1 µM (inactive) in [16]; 70.8 µM (inactive) in assay [17]; 41 µM (inactive) in [18]. Further, the results for the GI50 in [19] and in [20] were 62.5 µM (inactive) and 22 µM (inactive), respectively.
As to `CCOC(=O)C(C(=O)OCC)=C1NC2(c3ccccc3Nc3ccccc32)C(C#N)S1` (stereo not given), the GI50 in [1] is 10.4 µM (inactive); in [2], 3.53 µM (inactive); in assay [3], 4.63 µM (inactive); in [4] it was 13.8 µM (inactive); in assay [5] it was 14.4 µM (inactive); in [6] it was 7.53 µM (inactive). For the same compound, the GI50 in assay [7] was 13.5 µM (inactive); in assay [8], 2.81 µM (inactive); in assay [9], 6.08 µM (inactive); in assay [10] it was 5.6 µM (inactive); in assay [11] it was 12.7 µM (inactive); in assay [12], 3.79 µM (inactive). In addition, the GI50 in assay [13] was 4.34 µM (inactive); in [14], 5.78 µM; in [15], 4.37 µM (inactive); in assay [16] it was 10.4 µM (inactive); in assay [17], 11 µM (inactive); in [18], 11.1 µM (inactive). Further, the figures for the GI50 in assay [19] and in [20] were 12.9 µM (inactive) and 10.9 µM (inactive), respectively.
As to `CC(=O)c1[nH]c(NCc2ccccc2)c(C(=S)Nc2ccccc2)c1N`, the GI50 in [1] was 30.6 µM (inactive); in assay [2] it was 36.7 µM (inactive); in assay [3] it was 38.8 µM (inactive); in [4] it was 17.9 µM (inactive); in assay [5], 18.7 µM (inactive); in assay [6], 24.9 µM (inactive). Besides, the GI50 was 27.5 µM (inactive) in assay [7]; 28.7 µM (inactive) in [8]; 28.1 µM (inactive) in assay [9]; 22.5 µM (inactive) in assay [10]; > 100 µM (inactive) in assay [11]; 22.8 µM (inactive) in assay [12]. In addition, the GI50 was 14.9 µM (inactive) in assay [13]; 19.1 µM in [14]; 17.9 µM (inactive) in assay [15]; 17.3 µM (inactive) in [16]; 1.88 µM (inactive) in assay [17]; 25.6 µM (inactive) in assay [18]. For the same compound, the GI50 in assay [19] was 18.9 µM (inactive); in assay [20], 18.6 µM (inactive).
For the compound `OC1C=C2C3CN(Cc4cc5c(cc43)OCO5)[C@H]2C[C@@H]1O` (stereo not given in full), the GI50 in assay [1] is 15.7 µM (inactive); in [2], 4.29 µM (inactive); in assay [3], 5.96 µM (inactive); in [4], 6.87 µM (inactive); in [5], 3.89 µM (inactive); in [6], 4.31 µM (inactive). The GI50 in assay [7] was 4.13 µM (inactive); in [8], 2.94 µM (inactive); in [9] it was 2.34 µM (inactive); in assay [10], 5.12 µM (inactive); in [11], 3.82 µM (inactive); in [12] it was 2.28 µM (inactive). Also, the GI50 was 5.31 µM (inactive) in assay [13]; 4.33 µM in assay [14]; 3.86 µM (inactive) in assay [15]; 4.12 µM (inactive) in assay [16]; 16.9 µM (inactive) in [17]; 7.38 µM (inactive) in assay [18]. Besides, the GI50 in [19] is 2.54 µM (inactive); in assay [20], 5.04 µM (inactive).
Turning to `COC(=O)C(Cc1ccccc1)NS(=O)(=O)c1ccc(-c2c3nc(c(-c4ccc(S(=O)(=O)NC(Cc5ccccc5)C(=O)OC)cc4)c4ccc([nH]4)c(-c4ccc(S(=O)(=O)NC(Cc5ccccc5)C(=O)OC)cc4)c4nc(c(-c5ccc(S(=O)(=O)NC(Cc6ccccc6)C(=O)OC)cc5)c5ccc2[nH]5)C=C4)C=C3)cc1` (stereo not given), the GI50 in assay [1], in [2], in assay [3], in [4], in assay [5] and in assay [6] was > 100 µM (inactive) throughout. In addition, the GI50 was > 100 µM (inactive) in [7]; > 100 µM (inactive) in assay [8]; > 100 µM (inactive) in assay [9]; > 100 µM (inactive) in assay [10]; > 100 µM (inactive) in [11]; 85.5 µM (inactive) in [12]. In addition, the GI50 in assay [13] is 31.8 µM (inactive); in [14], greater than 100 µM; in assay [15], > 100 µM (inactive); in assay [16] it was 53.6 µM (inactive); in assay [17], > 100 µM (inactive); in assay [18], 54.6 µM (inactive). For the same compound, the GI50 in assay [19] is 39.4 µM (inactive); in assay [20], > 100 µM (inactive).
As to `CC12CCCCC1=C(F)C(F)(F)S2` (stereo not given), the GI50 was 40.1 µM (inactive) in assay [1]; 11.3 µM (inactive) in [2]; 52.1 µM (inactive) in [3]; > 100 µM (inactive) in assay [4]; 21.9 µM (inactive) in [5]; 17.5 µM (inactive) in assay [6]. Besides, the GI50 in [7] was 39.2 µM (inactive); in [8], 15 µM (inactive); in assay [9] it was 8.65 µM (inactive); in assay [10], > 57.7 µM (inactive); in [11] it was > 100 µM (inactive); in [12], > 100 µM (inactive). Further, the GI50 is 23.6 µM (inactive) in assay [13]; 32.7 µM in assay [14]; > 84.7 µM (inactive) in [15]; 20.8 µM (inactive) in assay [16]; > 70.6 µM (inactive) in [17]; 41.9 µM (inactive) in assay [18]. For the same compound, the GI50 is 20.5 µM (inactive) in assay [19] and 35.8 µM (inactive) in assay [20].
As to `CC(=O)OC1c2ccccc2CC2(OC(C)=O)c3ccccc3C12` (stereo not given), the GI50 in [1], in assay [2], in assay [3], in assay [4], in assay [5] and in assay [6] was > 100 µM (inactive) each time. In addition, the GI50 in [7], in assay [8], in [9], in assay [10], in assay [11] and in assay [12] was > 100 µM (inactive) each time. The GI50 in assay [13] was 91 µM (inactive); in assay [14], greater than 100 µM; in assay [15], > 100 µM (inactive); in assay [16], > 100 µM (inactive); in [17], > 100 µM (inactive); in [18] it was > 100 µM (inactive). The GI50 in [19] and in [20] was > 100 µM (inactive) throughout.
